# Source: patent publication US11241396B2 (Gateway Health Alliances, Inc., priority 2015, dated 2022)
# Entries after “also recorded” stand apart in the source; their conditions may differ. Where two headings read alike, the source gives them in different places.
# What was measured:
# [1] = system: animal; settings: 500 mg/kg, bw/day for 3 months dosing; cited from earlier work
# [2] = system: platelets; settings: 4 mg/kg/day; cited from earlier work
# [3] = system: humans; settings: cited from earlier work
# [4] = system: humans; settings: cited from earlier work; remark: listed apart in the source
# [5] = Plasma resveratrol concentrations (HPLC) after capsule intake; type: in vivo, human; settings: 90 mg, median (interquartile range), n=30
# Protocol: The study included two separate investigations: a one hour study and a two hour study (FIG. 1). […] The two hour study was designed to fully assess and compare the responses to trans-res and ResArgin™.
# Participants were randomized by block design to consumed trans-res or ResArgin™ in random order. Randomization was performed by the study coordinator following a predetermined plan formulated via a web-based random number generator. […] The study included two separate investigations: a one hour study and a two hour study (FIG. 6). During each study visit, which took place after an overnight fast, a baseline measurement of PAT and a blood sample were collected, followed by consumption of the assigned treatment. During the one hour study, PAT measurements and blood samples were collected thirty and sixty minutes after the capsules were consumed. During the two hour study, a PAT measurement and blood sample were taken two hours after the capsules were consumed.
# Briefly, plasma was treated with acidified methanol [0.5% (v/v) of acetic acid in methanol; precooled to −20° C.] containing an appropriate recovery standard. The mixture was stored at −80 C for 12 hours to allow for cryo-assisted protein precipitation, and then centrifuged for 15 min at 16,500×g. […]
# [6] = system: platelets; settings: 10-1,000 μM in vitro; cited from earlier work
# [7] = system: human umbilical vein endothelial cells; settings: 1 μM; cited from earlier work
# [8] = system: cyclooxygenase (COX); settings: in vitro studies; cited from earlier work
# [9] = system: platelets; test: Platelet function by whole blood/optical lumi-aggregometer after capsule intake; type: in vivo, human
# Protocol: Platelet reactivity during clinical screening was assessed by a PFA-100 (Siemens, Deerfield, Ill.), which measures platelet function by simulating arterial hemostasis under blood flow shear stress. During the intervention, platelet function was assessed by a whole blood/optical lumi-aggregometer (Chrono-log Model 700, Havertown, Pa.). Briefly, platelet aggregation was measured via electrical impedence (or electrical resistance), whereas lumi-aggregometry was used to examine aggregation together with adenosine triphosphate (hereafter, “ATP”) release, which is determined with firefly luciferin-luciferase system. […] One of the following agonists was used to stimulate platelets: collagen (1 μL and 5 μL), AA (10 μL) or ADP (10 μL). ATP release was measured only when platelets were activated with ADP. The aggregation was measured over a period of six minutes, following the addition of an agonist.
# [10] = system: platelets; settings: 10 mg daily for three months; cited from earlier work
# [11] = system: postmenopausal women; test: Microvascular function by peripheral arterial tonometry (Endo-PAT2000), randomized double-blind crossover trial; type: in vivo, human; settings: combined data; univariate ANOVA with Bonferroni post hoc
# [12] = 10 mg per day for three months, stable coronary artery disease patients
# [13] = 1 μL collagen, one hour post consumption vs baseline
# [14] = 10 μL arachidonic acid, one hour after intake vs baseline
smiles,measurement,setting,value
"Oc1ccc(C=Cc2cc(O)cc(O)c2)cc1 [Resveratrol, 3,5,4′-trihydroxystilbene]",Toxicity in animal studies,[1],no toxicity effect
same,ADP-induced platelet aggregation,[2],inhibited
same,FMD,[3]; [12],enhanced FMD response
same,FMD,[3]; 75 mg daily for six weeks,enhanced FMD response
same,Plasminogen activator inhibitor type 1 (PAI-1),"[4]; 8 mg daily for six months, then 16 mg per day for six months",significant decrease
same,Total cholesterol,[4]; 250 mg for three months,decrease
same,Low density lipoprotein (LDL) cholesterol,[4]; daily intake of 8 mg for six months,Reduction
"Oc1ccc(/C=C/c2cc(O)cc(O)c2)cc1 [trans-res, Trans-resveratrol]",Plasma resveratrol concentration,[5]; 30 minutes after intake,"2.04 (0.82, 2.54)"
same,Plasma resveratrol concentration,[5]; 60 minutes after intake,"2.65 (1.69, 3.44)"
same,Platelet aggregation,[6],significantly reduced aggregation in a dose dependent fashion
same,Expression of eNOS,[7],up-regulated
same,Cyclooxygenase (COX) activity,[8],can inhibit
same,Lag time of platelet aggregation,[9]; [13],significant increase
same,Slope of platelet aggregation,[9]; [13],not for the trans-res group
same,Platelet function changes,"[9]; 5 μL collagen, one hour post consumption vs baseline",no significant changes
same,"Slope, lumi-aggregometry","[9]; 10 μL ADP, one hour post consumption vs baseline",significant decrease
same,Area under the curve (AUC) of aggregation,[9]; [14],no changes were noted
same,Maximum aggregation,[9]; [14],no changes were noted
same,Platelet aggregation,[10],significantly reduced
same,FRHI one and two hours post-consumption compared to baseline (significance),[11],No differences were observed; also recorded: no changes were noted
same,RHI one hour after intake compared to baseline (significance),[11],not observed
same,FMD,[3]; [12],significant improvement in FMD
same,FMD,[3]; 75 mg daily for six weeks,significant increase in FMD
same,FMD,"[3]; 75 mg, one hour post-consumption",significant increase in FMD
same,FMD,"[3]; single dose of 30, 90 and 270 mg, one hour after consumption",increase in FMD
